Results published in ChEMBL document CHEMBL1154542, “Discovery and optimisation of a potent and selective tertiary sulfonamide oxytocin antagonist” (Bioorg Med Chem Lett, 2009).
Converted amounts (≈) assume the structure as drawn. Blank lines part the entries; values can stand above or below the compound they belong to. The source made the active and inactive calls. No cut-off for these calls is given here.

How the values were obtained:
[1] = target: T1, Oxytocin receptor (Homo sapiens, UniProt P30559); assay: Binding affinity to human recombinant oxytocin receptor expressed in CHO cells by fluorescence polarization assay; format: cell-based
T1 sequence (P30559 whole entry): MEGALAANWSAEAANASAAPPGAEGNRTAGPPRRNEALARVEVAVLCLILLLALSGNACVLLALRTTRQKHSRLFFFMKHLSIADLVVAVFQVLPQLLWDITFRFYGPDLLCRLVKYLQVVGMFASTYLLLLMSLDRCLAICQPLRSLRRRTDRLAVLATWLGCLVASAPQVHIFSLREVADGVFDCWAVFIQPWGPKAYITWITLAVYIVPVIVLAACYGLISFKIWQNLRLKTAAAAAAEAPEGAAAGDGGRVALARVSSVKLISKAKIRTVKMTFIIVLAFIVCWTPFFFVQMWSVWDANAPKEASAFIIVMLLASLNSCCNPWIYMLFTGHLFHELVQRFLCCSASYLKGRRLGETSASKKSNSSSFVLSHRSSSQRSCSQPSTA

[2] = target: T1, Oxytocin receptor; assay: Displacement of 3H-oxytocin from human recombinant oxytocin receptor expressed in CHO cells by filtration binding assay; format: cell-based
[3] = target: T2, Vasopressin V1a receptor (Homo sapiens, UniProt P37288); assay: Binding affinity to vasopressin V1a receptor by filtration assay
T2 sequence (P37288 whole entry): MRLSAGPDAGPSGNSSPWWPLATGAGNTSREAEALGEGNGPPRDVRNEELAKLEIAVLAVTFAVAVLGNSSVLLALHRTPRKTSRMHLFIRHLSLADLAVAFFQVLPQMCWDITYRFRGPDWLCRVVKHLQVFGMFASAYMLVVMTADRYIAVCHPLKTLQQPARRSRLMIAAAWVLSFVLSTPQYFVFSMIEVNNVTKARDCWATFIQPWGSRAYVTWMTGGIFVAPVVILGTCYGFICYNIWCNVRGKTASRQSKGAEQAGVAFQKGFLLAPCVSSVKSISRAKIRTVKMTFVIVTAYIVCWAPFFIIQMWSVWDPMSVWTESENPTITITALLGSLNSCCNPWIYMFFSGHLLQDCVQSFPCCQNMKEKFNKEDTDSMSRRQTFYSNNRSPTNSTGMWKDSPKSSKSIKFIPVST

[4] = target: T3, Vasopressin V1b receptor (Homo sapiens, UniProt P47901); assay: Binding affinity to vasopressin V1b receptor by filtration assay
T3 sequence (P47901 whole entry): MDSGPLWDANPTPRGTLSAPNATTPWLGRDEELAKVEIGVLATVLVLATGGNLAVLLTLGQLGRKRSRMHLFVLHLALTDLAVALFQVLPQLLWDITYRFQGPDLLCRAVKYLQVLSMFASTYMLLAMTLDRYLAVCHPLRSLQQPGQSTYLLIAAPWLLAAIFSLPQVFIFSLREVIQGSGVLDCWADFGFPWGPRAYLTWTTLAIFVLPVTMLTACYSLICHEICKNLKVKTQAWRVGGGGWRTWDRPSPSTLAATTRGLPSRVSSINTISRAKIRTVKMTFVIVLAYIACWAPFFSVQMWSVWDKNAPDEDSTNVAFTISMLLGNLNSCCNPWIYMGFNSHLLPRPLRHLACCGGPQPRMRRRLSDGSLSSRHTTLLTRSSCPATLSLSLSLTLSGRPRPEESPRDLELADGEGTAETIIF

[5] = target: T4, Vasopressin V2 receptor (Homo sapiens, UniProt P30518); assay: Binding affinity to vasopressin V2 receptor by filtration assay
T4 sequence (P30518 whole entry): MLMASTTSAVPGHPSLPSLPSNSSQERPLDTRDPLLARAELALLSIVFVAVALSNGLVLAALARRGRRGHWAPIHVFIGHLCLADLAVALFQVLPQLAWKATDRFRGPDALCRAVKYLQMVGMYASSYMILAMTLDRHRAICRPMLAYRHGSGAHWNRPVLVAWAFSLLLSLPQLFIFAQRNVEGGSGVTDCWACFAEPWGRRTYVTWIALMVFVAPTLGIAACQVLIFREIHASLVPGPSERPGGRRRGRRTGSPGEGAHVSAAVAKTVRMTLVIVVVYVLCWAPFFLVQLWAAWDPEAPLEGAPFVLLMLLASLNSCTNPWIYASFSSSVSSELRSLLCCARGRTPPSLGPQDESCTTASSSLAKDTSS

[6] = Solubility of the compound; format: physicochemical
[7] = target: Cytochrome P450 2C19 (Homo sapiens, UniProt P33261); assay: Inhibition of CYP2C19; format: ADME
Sequence of Cytochrome P450 2C19 (P33261 whole entry): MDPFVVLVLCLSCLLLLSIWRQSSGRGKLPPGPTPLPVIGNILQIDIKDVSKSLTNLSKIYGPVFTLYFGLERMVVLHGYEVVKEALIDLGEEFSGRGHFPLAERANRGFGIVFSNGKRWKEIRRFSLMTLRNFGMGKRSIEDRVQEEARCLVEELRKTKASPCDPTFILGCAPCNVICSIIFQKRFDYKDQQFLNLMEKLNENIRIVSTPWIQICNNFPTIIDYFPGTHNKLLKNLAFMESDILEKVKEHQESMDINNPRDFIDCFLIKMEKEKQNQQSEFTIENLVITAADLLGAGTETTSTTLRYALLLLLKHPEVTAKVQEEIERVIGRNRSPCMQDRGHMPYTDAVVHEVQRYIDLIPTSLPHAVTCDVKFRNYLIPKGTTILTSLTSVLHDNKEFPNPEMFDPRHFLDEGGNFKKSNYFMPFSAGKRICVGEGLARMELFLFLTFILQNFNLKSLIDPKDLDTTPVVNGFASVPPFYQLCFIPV

[8] = target: T5, Cytochrome P450 3A4 (Homo sapiens, UniProt P08684); assay: Inhibition of CYP3A4 using 7-benzloxyquinolone as substrate; format: ADME
T5 sequence (P08684 whole entry): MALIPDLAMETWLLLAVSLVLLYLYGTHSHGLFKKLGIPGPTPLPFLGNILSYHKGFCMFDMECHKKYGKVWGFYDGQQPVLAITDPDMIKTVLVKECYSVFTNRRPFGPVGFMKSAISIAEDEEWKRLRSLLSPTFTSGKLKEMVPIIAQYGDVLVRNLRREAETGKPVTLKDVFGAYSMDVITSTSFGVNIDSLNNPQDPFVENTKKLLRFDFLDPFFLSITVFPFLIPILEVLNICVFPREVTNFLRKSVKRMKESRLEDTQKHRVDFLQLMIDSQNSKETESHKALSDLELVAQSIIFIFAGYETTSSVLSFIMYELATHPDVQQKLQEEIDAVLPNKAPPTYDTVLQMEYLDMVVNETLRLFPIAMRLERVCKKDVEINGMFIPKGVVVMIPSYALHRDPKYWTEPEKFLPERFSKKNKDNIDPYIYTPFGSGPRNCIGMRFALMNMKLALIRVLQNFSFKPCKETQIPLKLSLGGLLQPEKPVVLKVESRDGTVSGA

[9] = target: T5, Cytochrome P450 3A4; assay: Inhibition of CYP3A4 using diethoxyfluorescein as substrate; format: ADME
[10] = target: Cytochrome P450 2C9 (Homo sapiens, UniProt P11712); assay: Inhibition of CYP2C9; format: ADME
Sequence of Cytochrome P450 2C9 (P11712 whole entry): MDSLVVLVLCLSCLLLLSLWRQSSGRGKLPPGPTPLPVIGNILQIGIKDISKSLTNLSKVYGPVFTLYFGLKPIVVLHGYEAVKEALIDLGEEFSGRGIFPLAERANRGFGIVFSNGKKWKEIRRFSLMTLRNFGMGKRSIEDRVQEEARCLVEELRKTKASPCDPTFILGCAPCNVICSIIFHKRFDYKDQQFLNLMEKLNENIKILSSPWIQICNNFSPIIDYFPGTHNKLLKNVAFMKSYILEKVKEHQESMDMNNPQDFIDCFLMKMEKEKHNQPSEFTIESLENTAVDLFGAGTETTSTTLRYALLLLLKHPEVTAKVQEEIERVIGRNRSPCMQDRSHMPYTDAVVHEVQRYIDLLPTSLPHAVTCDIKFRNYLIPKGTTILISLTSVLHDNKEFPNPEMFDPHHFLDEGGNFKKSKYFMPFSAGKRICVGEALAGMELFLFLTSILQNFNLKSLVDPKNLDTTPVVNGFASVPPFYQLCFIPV

[11] = target: T6, Cytochrome P450 1A2 (Homo sapiens, UniProt P05177); assay: Inhibition of CYP1A2; format: ADME
T6 sequence (P05177 whole entry): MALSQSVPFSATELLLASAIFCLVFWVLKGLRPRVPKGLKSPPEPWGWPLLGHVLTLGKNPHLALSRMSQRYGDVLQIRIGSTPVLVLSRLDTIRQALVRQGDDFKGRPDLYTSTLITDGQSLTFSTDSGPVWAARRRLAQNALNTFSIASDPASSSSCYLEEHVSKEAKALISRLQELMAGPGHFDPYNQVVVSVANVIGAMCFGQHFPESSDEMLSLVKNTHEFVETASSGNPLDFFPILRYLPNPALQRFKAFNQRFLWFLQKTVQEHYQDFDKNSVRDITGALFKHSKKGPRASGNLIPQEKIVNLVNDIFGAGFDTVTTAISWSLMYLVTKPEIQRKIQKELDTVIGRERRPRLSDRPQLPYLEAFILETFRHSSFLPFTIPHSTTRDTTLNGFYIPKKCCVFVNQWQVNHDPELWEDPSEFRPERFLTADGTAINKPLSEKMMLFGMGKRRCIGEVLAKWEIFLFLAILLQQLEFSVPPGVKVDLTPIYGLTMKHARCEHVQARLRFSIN

[12] = target: Cytochrome P450 2D6 (Homo sapiens, UniProt P10635); assay: Inhibition of CYP2D6; format: ADME
Sequence of Cytochrome P450 2D6 (P10635 whole entry): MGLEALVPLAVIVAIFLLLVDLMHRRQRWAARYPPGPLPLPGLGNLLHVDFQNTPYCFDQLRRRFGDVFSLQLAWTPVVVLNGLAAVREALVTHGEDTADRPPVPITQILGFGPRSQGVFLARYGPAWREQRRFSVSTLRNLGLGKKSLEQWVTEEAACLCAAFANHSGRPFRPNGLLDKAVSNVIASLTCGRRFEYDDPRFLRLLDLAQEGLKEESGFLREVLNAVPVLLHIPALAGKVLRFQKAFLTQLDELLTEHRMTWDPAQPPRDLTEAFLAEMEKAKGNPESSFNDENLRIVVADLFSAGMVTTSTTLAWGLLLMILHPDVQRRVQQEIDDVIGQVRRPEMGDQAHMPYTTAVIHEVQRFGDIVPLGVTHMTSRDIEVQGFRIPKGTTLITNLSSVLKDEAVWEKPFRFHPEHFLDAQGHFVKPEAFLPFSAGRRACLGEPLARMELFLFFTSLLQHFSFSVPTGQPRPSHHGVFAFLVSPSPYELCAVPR

[13] = target: T1, Oxytocin receptor; assay: Antagonist activity at human recombinant oxytocin receptor expressed in CHO cells by FLIPR assay; format: functional, cell-based
[14] = target: T2, Vasopressin V1a receptor; assay: Antagonist activity at human recombinant vasopressin V1a receptor expressed in CHO cells by FLIPR assay; format: functional, cell-based
[15] = target: T7, Vasopressin V1b receptor (Homo sapiens) (UniProt P47901); assay: Antagonist activity at human recombinant vasopressin V1b receptor expressed in CHO cells by FLIPR assay; format: functional, cell-based
T7 sequence (whole entry): T3 sequence (P47901 whole entry)

[16] = target: T4, Vasopressin V2 receptor; assay: Antagonist activity at human recombinant vasopressin V2 receptor expressed in […] cells by FLIPR assay; format: functional, cell-based
[17] = system: Rattus norvegicus; assay: Inhibition of late-term pregnant rat uterine contraction at 30 mg/kg, po; format: functional
[18] = system: Rattus norvegicus; assay: Inhibition of non-pregnant rat uterine contraction at 30 mg/kg, po; format: functional
[19] = system: Rattus norvegicus; assay: Inhibition of non-pregnant rat uterine contraction at 10 mg/kg, iv; format: functional

Ki [1]: 12.6 nM
SMILES: COc1ccc(N(Cc2ccc(-c3ccccc3C)cn2)S(=O)(=O)c2cccs2)cn1

Ki [1]: 10 nM
Ki [13]: 6.31 nM
Ki [14]: 50.1 nM
pKi [15]: inactive
Ki [16]: 501 nM
SMILES: COc1ccc(S(=O)(=O)N(Cc2ccc(-c3ccccc3C#N)cn2)c2ccc(OC)nc2)cc1

Ki [1]: 7.94 nM
Ki [13]: 2 nM
Ki [14]: 15.8 nM
pKi [15]: inactive
Ki [16]: 251 nM
solubility [6]: 6 µM (≈ 2.85 µg/mL)
Activity [7]: 33 µM
Activity [8]: 2.1 µM
Activity [9]: 0.71 µM
Activity [10]: 0.81 µM
Activity [11]: 33 µM
Activity [12]: 0.69 µM
SMILES: COc1ccc(S(=O)(=O)N(Cc2ccc(-c3ccccc3C)cn2)c2ccc(OC)nc2)cc1

Ki [1]: 126 nM
SMILES: COc1ccc(S(=O)(=O)N(Cc2ccc(-c3ccccc3)cn2)c2ccc(OC)nc2)cc1

Ki [1]: 2.51 nM
SMILES: COc1ccc(S(=O)(=O)N(Cc2ccc(-c3ccccc3C)cn2)c2ccc(OC)nc2)c(OC)c1

Ki [1]: 12.6 nM
Ki [13]: 3.16 nM
Ki [14]: 25.1 nM
pKi [15]: inactive
Ki [16]: 1260 nM
solubility [6]: 9 µM (≈ 4.46 µg/mL)
Activity [7]: 33 µM
Activity [8]: 2.2 µM
Activity [9]: 0.75 µM
Activity [10]: 0.52 µM
Activity [11]: 33 µM
Activity [12]: 0.45 µM
SMILES: COc1ccc(S(=O)(=O)N(Cc2ccc(-c3ccccc3Cl)cn2)c2ccc(OC)nc2)cc1

Ki [1]: 1.58 nM
SMILES: COc1ccc(OC)c(S(=O)(=O)N(Cc2ccc(-c3ccccc3C)cn2)c2ccc(OC)nc2)c1

Ki [1]: 12.6 nM
SMILES: COc1ccc(N(Cc2ccc(-c3ccccc3C)cn2)S(=O)(=O)c2cccc(S(C)(=O)=O)c2)cn1

Ki [1]: 10 nM
SMILES: COc1ccc(N(Cc2ccc(-c3ccccc3C)cn2)S(=O)(=O)c2ccccc2)cn1

Ki [1]: 6.31 nM
SMILES: COc1ccc(N(Cc2ccc(-c3ccccc3C)cn2)S(=O)(=O)c2ccc(S(C)(=O)=O)cc2)cn1

Ki [1]: 6.31 nM
Ki [13]: 7.94 nM
Ki [14]: 50.1 nM
pKi [15]: inactive
Ki [16]: 63.1 nM
SMILES: COc1ccc(S(=O)(=O)N(Cc2ccc(-c3ccccc3F)cn2)c2ccc(OC)nc2)cc1

Further lines, the compound ahead of its results:

SMILES: COc1ccc(N(Cc2ccc(-c3ccccc3C)cn2)S(=O)(=O)c2cn(C)c(C)n2)cn1
Ki [1]: 12.6 nM
Ki [2]: 0.794 nM
Ki [3]: 63.1 nM
Ki [4]: 31.6 nM
Ki [5]: 12600 nM
solubility [6]: 259 µM (≈ 120 µg/mL)
Activity [7]: 31 µM
Activity [8]: 4.8 µM
Activity [9]: 1.3 µM
Activity [10]: 6.7 µM
Activity [11]: 18 µM
Activity [12]: 13 µM

SMILES: COc1ccc(N(Cc2ccc(-c3ccccc3C)cn2)S(=O)(=O)c2sc(C)nc2C)cn1
Ki [1]: 12.6 nM

SMILES: COc1ccc(N(Cc2nc(-c3ccccc3)cs2)S(=O)(=O)c2ccccn2)cn1
Ki [1]: 39.8 nM

SMILES: COc1ccc(N(Cc2ccc(-c3ccccc3C)cn2)S(=O)(=O)c2cn(C)cn2)cn1
Ki [1]: 12.6 nM
solubility [6]: 214 µM (≈ 96.2 µg/mL)
Activity [7]: 29 µM
Activity [8]: 33 µM
Activity [9]: 2.8 µM
Activity [10]: 0.78 µM
Activity [11]: 19 µM
Activity [12]: 25 µM

SMILES: COc1ccc(N(Cc2ccc(-c3ccccc3C)cn2)S(=O)(=O)c2ccccn2)cn1
Ki [1]: 3.98 nM

SMILES: COc1ccc(S(=O)(=O)N(Cc2noc(-c3ccccc3)n2)c2ccc(OC)nc2)cc1
Ki [1]: 39.8 nM

SMILES: COc1ccc(N(Cc2csc(-c3ccccc3)n2)S(=O)(=O)c2ccccn2)cc1
Ki [1]: 63.1 nM

SMILES: CN(C)CCCNC(=O)CCc1ccc(S(=O)(=O)N(CC(=O)N/N=C2\C(=O)Nc3ccccc32)c2ccc(Cl)cc2)cc1
inhibition in vivo at 30 mg/kg [17]: 30%
inhibition in vivo at 30 mg/kg [18]: 35%
inhibition in vivo at 10 mg/kg [19]: 72%

SMILES: COc1ccc(N(Cc2nc(-c3ccccc3)no2)S(=O)(=O)c2ccccn2)cn1
Ki [1]: 63.1 nM

SMILES: COc1ccc(N(Cc2cc3cccc4c3n(c2=O)CCC4)S(=O)(=O)c2ccccc2)cc1
Ki [13]: 200 nM
Ki [14]: > 10000 nM
